# Laboratory results: the NIST ThermoML archive (doi:10.1021/acs.jced.5b00882)
# ± gives the expanded uncertainty stated by the source.
# Assays:
# [1] = for mass density: 298.15 K, 101.33 kPa, Liquid, Pycnometric method
# [2] = Molar enthalpy of transition or fusion; details: Crystal; DSC
"Triple point temperature ([1]; Crystal, DSC) [K]",Molar enthalpy of transition or fusion [2] [kJ/mol],mass density [1] [kg/m3],Structure (SMILES)
,,815.7 ± 1.5,CCCCCCO [hexan-1-ol]
,,786.6 ± 0.6,CO [methanol]
,,821.6 ± 1.5,CCCCCCCCO [octan-1-ol]
,,811.4 ± 1.5,CCCCCO [pentan-1-ol]
,,799.7 ± 1.5,CCCO [propan-1-ol]

# Further lines, the molecule ahead of its results:
Structure (SMILES),"Triple point temperature ([1]; Crystal, DSC) [K]",Molar enthalpy of transition or fusion [2] [kJ/mol],mass density [1] [kg/m3]
"CNC(=O)NC [1,3-dimethylurea]",376.35 ± 0.93,12.8 ± 0.39,
CCCCO [butan-1-ol],,,806 ± 1.5
CCO [ethanol],,,785.3 ± 1.5
CCCCCCCO [heptan-1-ol],,,819.2 ± 1.5
